Here are results for nine molecules from ChEMBL document CHEMBL1201862, “PubChem BioAssay data set” (2004).

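Method: 48-hour compound exposure of cells in 96-well plates, five concentrations, linear interpolation of endpoints. GI50 marks 50% less growth.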 The source made the active and inactive calls. Cut-off read from the data, not from the text of the source: active = GI50 up to about 1.1 µM and inactive = higher.

Among the test systems are BT-549; DLD-1; SNB-78; M19-MEL; RXF 631; LXFL 529; DMS-114; HOP-18.
What all share (experiment): DTP human tumour cell line panel, 48 h

As usually defined, the GI50 is the concentration that inhibits growth by half. As to `Cc1cn(C2CC(O)C(Cn3nncc3Cn3ncc(=O)[nH]c3=O)O2)c(=O)[nH]c1=O` (configuration not stated), the GI50 with BT-549 was > 100 µM (inactive).

For `CCCCOC(=O)CN1C(=O)c2ccccc2C1=O`, the GI50 with DLD-1, in the assay on SNB-78 and in the assay with M19-MEL was > 100 µM (inactive) each time.

On to `C=C(C)C1CC2=C(O1)C(=O)c1ccccc1C2=O` (stereo not drawn) [DEHYDROISO-ALPHA-LAPACHONE], for which the GI50 in the assay on DLD-1 was 20.8 µM (inactive); in the assay with RXF 631, 20.3 µM (inactive); with LXFL 529, 17.2 µM (inactive); in the assay with DMS-114 it was 16 µM (inactive); in the assay with SNB-78 it was 20.3 µM (inactive).

On to `O=c1n(CC2CO2)c2ccccc2n1CC1CS1` (configuration not stated), for which the GI50 in the assay with LXFL 529 was 88.9 µM (inactive); in the assay with DMS-114, 77.8 µM (inactive); with M19-MEL, > 100 µM (inactive).

`CN1NC(c2ccccc2)=C(C#N)C(=O)CC1c1ccc(F)cc1` (configuration not stated): the GI50 in the assay with DLD-1, with RXF 631, in the assay with HOP-18, in the assay on LXFL 529, in the assay with DMS-114 and with SNB-78 was > 100 µM (inactive) each time.

With `COC(c1ccc(C(C)(C)C)cc1)(c1ccc(C(C)(C)C)cc1)c1cc(C(O)(c2cc(C(OC)(c3ccc(C(C)(C)C)cc3)c3ccc(C(C)(C)C)cc3)c(C)cc2C)c2cc(C(OC)(c3ccc(C(C)(C)C)cc3)c3ccc(C(C)(C)C)cc3)c(C)cc2C)c(C)cc1C`, the GI50 in the assay with BT-549 was > 100 µM (inactive).

With `CCOc1ccc(C(C)c2cc3c(cc2OC)OCO3)cc1` (configuration not stated), the concentration for 50% growth inhibition (GI50) in the assay on DLD-1 was 0.377 µM (active); with HOP-18 it was 2.2 µM (inactive); with LXFL 529 it was 0.429 µM (active); with DMS-114, 0.214 µM (active); in the assay on SNB-78, 3.2 µM (inactive).

Consider `CC1(C)CCc2cc3c(-c4ccccc4)cc(=O)oc3cc2O1`, for which the GI50 is > 100 µM (inactive) in the assay on DLD-1; > 100 µM (inactive) in the assay on RXF 631; 47.8 µM (inactive) in the assay on HOP-18; > 100 µM (inactive) in the assay on LXFL 529; > 100 µM (inactive) in the assay on DMS-114; 85.7 µM (inactive) with SNB-78. The GI50 in the assay with M19-MEL was > 100 µM (inactive).

Take `Cc1ccc(Cl)cc1/N=N/C(=O)NNc1cc(Cl)ccc1C`: the GI50 in the assay on BT-549 is 18.2 µM (inactive).
